Assays:
HeLa cells = details: 24h co-incubation with C004
From the text: See Goodall, M. L. et al., Developmental Cell, vol. 37, 337-349 (2016).

HCC-PDX xenograft = HCC-PDX xenograft on Humanized NSG mice with TIL analysis (Example 11); assay type: in vivo; details: tumor infiltrating leukocytes
Protocol: Pembrolizumab 25 mg/mL (Keytruda®, Merck® KGa) was purchased from Merck®. Isotonic zinc sulfate gamma-polyglutamate solution was prepared at pH 7.0 using Tris buffer (1 mM), at elemental zinc concentration of 1 mg/mL and gamma-polyglutamate concentration of 10 mg/mL.
All manipulations and procedures with mice were approved by Agency for Science, Technology and Research (A*STAR) Institutional Animal Care and Use Committee (IACUC). The diet provided was irradiated TEKLAD GLOBAL 18% Protein Rodent Diet (2918). Mice were housed in a sterile environment and only accessed under a BSL2 hood. Mice were fed, given water and monitored daily for health, and cages were changed weekly. NSG mice were purchased from The Jackson Laboratory and bred in a specific pathogen free facility at the Biological Resource Centre (BRC) in A*STAR, Singapore. One to three days old NSG pups were irradiated with a 55 s exposure equaling 1.1 Gy and transplanted with 1×10^5 CD34+ human fetal liver cells by intra-hepatic injections. The mice were bled at 8 weeks post-transplantation to determine the fraction of human immune cell reconstitution. Reconstitution was calculated by [% hCD45+/(% hCD45++% mCD45+)]. […]
Tumor volume was measured in two dimensions (length and width) using calipers and the tumor volume was calculated using the formula: Tumor size=(length […])×½. […]

## N.S=C(S)N1CCCC1 [PDTC]
HeLa cells
  effect of inhibitor/agonist on C004-induced necrotic cytotoxicity (LDH release assay): did not cause a shift in the IC50 necrotic cytotoxicity

## Pembrolizumab
HCC-PDX xenograft
  TIL analysis, T cell involvement: solely dependent on CD8+ T cells

From patent publication US20210128609A1, “ONCOLOGY TREATMENTS USING ZINC AGENTS” (XYLONIX IP HOLDINGS PTE. LTD., priority 2018, published 2021)
